Assay results as given in paper PMC10892423 (Pharmaceutics, 2024).
Values belong to the compound of their own block, whether it stands above or below them.

Legend:
[1] = system: MBL-producing P. aeruginosa clinical isolates; experiment: MIC by broth microdilution (CLSI); assay type: cell-based, Pseudomonas aeruginosa; details: Pseudomonas aeruginosa
Experimental: The DMSO stock solutions of the test compounds were serially diluted to the desired concentrations in CAMHB. Then, 10 μL of the bacterial suspension (5 × 10^5 colony forming units (CFU)/mL) was combined with 200 μL of DMSO stock solutions of the test compounds in 96-well microtiter plates (1% DMSO, final). After the incubation of the plate at 37 °C for 24 h, bacterial growth was visibly evaluated by monitoring the turbidity of the resulting suspension, and the MICs were determined as the lowest concentrations of the test compounds that inhibited the visible growth of the bacteria.

[2] = target: T1, AmpC (Escherichia coli, UniProt P00811); experiment: β-lactamase inhibition, nitrocefin hydrolysis; assay type: biochemical
T1 construct: made in house
Text: (§1) Recombinant AmpC from Escherichia coli was produced according to a previously reported protocol. KPC-2 and NDM-1 […] were purchased from LifeSpan Biosciences, Inc. (Lynnwood, WA, USA) (LS-G26598) and RayBiotech, Inc. (Peachtree Corners, GA, USA) (230-00554), respectively. Genes encoding OXA-48 (residues 23–265) and VIM-2 (residues 27–266) were custom-synthesized (Bioneer Inc., Seoul, Republic of Korea) and expressed as previously described. The β-lactamase inhibitory activity of the title compounds was then determined according to the previously reported methods. Briefly, equal volumes (100 μL) of the title compounds (70–0.1 μM in PBS) and diluted enzyme stock were mixed (final concentration 2% of DMSO in 200 μL) in 96-well plates, which were then incubated at 37 °C for 20 min. The incubated mixture was added to each well containing substrates (nitrocefin for AmpC, KPC-2, OXA-48, and VIM-2; and imipenem for NDM-1) of final concentrations of 70 μM for nitrocefin and 100 μM for imipenem. Substrate hydrolysis was monitored at 486 nm (nitrocefin) or 300 nm (imipenem) for 15 min, using a Cytation 5 imaging multimode reader (BioTek Instruments Inc., Winooski, VT, USA). At the plateau level of hydrolysis, the corresponding rates of hydrolysis were compared to those obtained without inhibitors (100%) to determine the percentage of enzyme inhibition at each concentration of the title compounds. The IC50 values of the compounds were derived from sigmoidal dose–response curves, using GraphPad Prism 5 (GraphPad Software, Boston, MA, USA).

[3] = target: T2, KPC-2 (Klebsiella pneumoniae, UniProt Q9F663); experiment: β-lactamase inhibition, nitrocefin hydrolysis; assay type: biochemical; details: nitrocefin substrate; read-out: β-Lactamases, IC50 KPC-2
T2 construct: purchased LifeSpan Biosciences, Inc. LS-G26598
Text: as §1

[4] = target: T3, OXA-48 (Klebsiella pneumoniae, UniProt Q6XEC0); experiment: β-lactamase inhibition, nitrocefin hydrolysis; assay type: biochemical; details: nitrocefin substrate; read-out: β-Lactamases, IC50 OXA-48
T3 construct: Genes encoding OXA-48 (residues 23–265) and VIM-2 (residues 27–266) were custom-synthesized; made in house
Text: as §1

[5] = target: T4, VIM-2 (Escherichia coli, UniProt Q5U7L7); experiment: β-lactamase inhibition, nitrocefin hydrolysis; assay type: biochemical; details: nitrocefin substrate; read-out: β-Lactamases, IC50 VIM-2
T4 construct: Genes encoding OXA-48 (residues 23–265) and VIM-2 (residues 27–266) were custom-synthesized; made in house
Text: as §1

[6] = target: T5, NDM-1 (Klebsiella pneumoniae, UniProt C7C422); experiment: β-lactamase inhibition, imipenem hydrolysis; assay type: biochemical; details: imipenem substrate; read-out: β-Lactamases, IC50 NDM-1
T5 construct: purchased RayBiotech, Inc. 230-00554
Text: as §1

T3 sequence (Q6XEC0 23-265 limits assumed): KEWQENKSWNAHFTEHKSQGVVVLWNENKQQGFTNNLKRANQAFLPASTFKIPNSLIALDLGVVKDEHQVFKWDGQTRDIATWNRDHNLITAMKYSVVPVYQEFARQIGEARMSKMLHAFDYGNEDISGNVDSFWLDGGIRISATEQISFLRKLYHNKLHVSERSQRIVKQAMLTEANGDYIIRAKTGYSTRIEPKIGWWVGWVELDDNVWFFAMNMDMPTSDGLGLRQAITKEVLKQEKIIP
T1 sequence (P00811 20-377): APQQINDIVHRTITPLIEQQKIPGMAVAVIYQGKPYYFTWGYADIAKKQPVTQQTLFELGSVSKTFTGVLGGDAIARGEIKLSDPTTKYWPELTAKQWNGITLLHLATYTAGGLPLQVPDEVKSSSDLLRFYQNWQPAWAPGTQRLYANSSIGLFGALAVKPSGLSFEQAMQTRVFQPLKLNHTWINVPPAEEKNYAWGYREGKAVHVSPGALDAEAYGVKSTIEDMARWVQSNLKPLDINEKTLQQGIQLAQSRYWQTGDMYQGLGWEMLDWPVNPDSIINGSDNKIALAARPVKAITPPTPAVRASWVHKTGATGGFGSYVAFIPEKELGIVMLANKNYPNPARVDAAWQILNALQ
T2 sequence (Q9F663 25-293, looked up): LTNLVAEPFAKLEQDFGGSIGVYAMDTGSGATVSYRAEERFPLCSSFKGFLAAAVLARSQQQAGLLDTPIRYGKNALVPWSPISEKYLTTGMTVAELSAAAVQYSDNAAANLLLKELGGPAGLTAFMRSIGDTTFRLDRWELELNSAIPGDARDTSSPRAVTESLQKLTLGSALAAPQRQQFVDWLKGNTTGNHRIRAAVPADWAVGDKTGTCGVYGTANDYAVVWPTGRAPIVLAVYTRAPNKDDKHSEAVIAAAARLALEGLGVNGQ
T5 sequence (C7C422 29-270, looked up, species assumed): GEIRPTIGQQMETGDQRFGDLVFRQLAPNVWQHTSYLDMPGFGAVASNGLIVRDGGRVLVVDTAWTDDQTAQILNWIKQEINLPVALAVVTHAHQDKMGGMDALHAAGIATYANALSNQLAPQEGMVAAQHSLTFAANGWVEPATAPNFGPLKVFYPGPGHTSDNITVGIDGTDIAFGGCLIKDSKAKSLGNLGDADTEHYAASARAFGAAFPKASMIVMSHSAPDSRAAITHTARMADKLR

MIC ([1]; PA-001, blaNDM): > 32 µg/mL | MIC ([1]; PA-002, blaIMP): > 32 µg/mL | MIC ([1]; PA-007, blaNDM): > 32 µg/mL | MIC ([1]; PA-008, blaNDM): > 32 µg/mL | MIC ([1]; PA-011, blaNDM): > 32 µg/mL | MIC ([1]; PA-012, blaNDM): ≤ 4 µg/mL | MIC ([1]; PA-016, blaIMP): > 32 µg/mL | MIC ([1]; PA-017, blaNDM): > 32 µg/mL | MIC ([1]; PA-019, blaNDM): > 32 µg/mL | MIC ([1]; PA-020, blaNDM): > 32 µg/mL | MIC ([1]; PA-023, blaNDM): > 32 µg/mL | MIC ([1]; PA-025, blaNDM): > 32 µg/mL | MIC ([1]; PA-027, blaIMP): > 32 µg/mL | MIC ([1]; PA-028, blaNDM): > 32 µg/mL | MIC ([1]; PA-029, blaIMP): > 32 µg/mL | MIC ([1]; PA-030, blaIMP): > 32 µg/mL | MIC ([1]; PA-034, blaNDM): > 32 µg/mL | MIC ([1]; PA-036, blaNDM): > 32 µg/mL | MIC ([1]; PA-038, blaNDM): > 32 µg/mL | MIC ([1]; PA-039, blaNDM): ≤ 4 µg/mL | MIC ([1]; PA-044, blaNDM): > 32 µg/mL
Compound: NCC[C@H](O)C(=O)N[C@@H]1C[C@H](N)[C@@H](O[C@H]2O[C@H](CN)[C@@H](O)[C@H](O)[C@H]2O)[C@H](O)[C@H]1O[C@H]1O[C@H](CO)[C@@H](O)[C@H](N)[C@H]1O [AMK, amikacin]

MIC ([1]; PA-001, blaNDM): > 16 µg/mL | MIC ([1]; PA-002, blaIMP): > 16 µg/mL | MIC ([1]; PA-007, blaNDM): > 16 µg/mL | MIC ([1]; PA-008, blaNDM): > 16 µg/mL | MIC ([1]; PA-011, blaNDM): > 16 µg/mL | MIC ([1]; PA-012, blaNDM): > 16 µg/mL | MIC ([1]; PA-016, blaIMP): > 16 µg/mL | MIC ([1]; PA-017, blaNDM): > 16 µg/mL | MIC ([1]; PA-019, blaNDM): > 16 µg/mL | MIC ([1]; PA-020, blaNDM): > 16 µg/mL | MIC ([1]; PA-023, blaNDM): > 16 µg/mL | MIC ([1]; PA-025, blaNDM): > 16 µg/mL | MIC ([1]; PA-027, blaIMP): > 16 µg/mL | MIC ([1]; PA-028, blaNDM): > 16 µg/mL | MIC ([1]; PA-029, blaIMP): > 16 µg/mL | MIC ([1]; PA-030, blaIMP): > 16 µg/mL | MIC ([1]; PA-034, blaNDM): > 16 µg/mL | MIC ([1]; PA-036, blaNDM): > 16 µg/mL | MIC ([1]; PA-038, blaNDM): > 16 µg/mL | MIC ([1]; PA-039, blaNDM): > 16 µg/mL | MIC ([1]; PA-044, blaNDM): > 16 µg/mL
Compound: CC(C)(O/N=C(\C(=O)N[C@@H]1C(=O)N2C(C(=O)[O-])=C(C[n+]3ccccc3)CS[C@H]12)c1csc(N)n1)C(=O)O [CAZ, ceftazidime]

Compound: CC(C)(C)CC(=O)Oc1c(-c2ccc(F)c(F)c2)oc2cc(O)cc(O)c2c1=O [Compound 3]
IC50 [2]: 19.2 µM | IC50 [3]: 22.2 µM | IC50 [4]: 21.2 µM | IC50 [5]: 20.3 µM | IC50 [6]: 24.6 µM

Compound: CC(C)(C)C(=O)OCOc1c(-c2ccc(F)c(F)c2)oc2cc(O)cc(O)c2c1=O [Compound 4]
IC50 [2]: 25.4 µM | IC50 [3]: 33.2 µM | IC50 [4]: 28.7 µM | IC50 [5]: 19.3 µM | IC50 [6]: 15.7 µM

Compound: CC(C)OC(=O)OCOc1c(-c2ccc(F)c(F)c2)oc2cc(O)cc(O)c2c1=O [Compound 5]
IC50 [2]: > 50 µM | IC50 [3]: > 50 µM | IC50 [4]: 42.7 µM | IC50 [5]: > 100 µM | IC50 [6]: > 50 µM

Compound: CC(C)(C)c1ccc(COc2c(-c3ccc(F)c(F)c3)oc3cc(O)cc(O)c3c2=O)cc1 [Compound 6]
IC50 [2]: > 50 µM | IC50 [3]: > 50 µM | IC50 [4]: 37.8 µM | IC50 [5]: > 100 µM | IC50 [6]: 14.1 µM

Compound: CC(C)c1ccc(COc2c(-c3ccc(F)c(F)c3)oc3cc(O)cc(O)c3c2=O)cc1 [Compound 7]
IC50 [2]: > 50 µM | IC50 [3]: 21.5 µM | IC50 [4]: 6 µM | IC50 [5]: 13.1 µM | IC50 [6]: 16.7 µM

Compound: O=c1c(OCCO)c(-c2ccc(F)c(F)c2)oc2cc(O)cc(O)c12 [Compound 8]
IC50 [2]: > 50 µM | IC50 [3]: > 50 µM | IC50 [4]: > 100 µM | IC50 [5]: > 100 µM | IC50 [6]: > 50 µM

Compound: O=c1c(OCCOCCO)c(-c2ccc(F)c(F)c2)oc2cc(O)cc(O)c12 [Compound 9]
IC50 [2]: > 50 µM | IC50 [3]: > 50 µM | IC50 [4]: > 100 µM | IC50 [5]: > 100 µM | IC50 [6]: > 50 µM
